Several values for one entry are separate records, joined by “and”; a condition that tells them apart may be missing. Equal values may be shown once.
Columns and labels:
[1] = Plasma pharmacokinetics after IV or PO administration; format: in vivo; conditions: SD Rat, PO 40 mg/kg
[2] = tested on: PDICs obtained from thioglycolate-stimulated TIRAP−/− mice; assay: CD86 on CD19+ cells in cultured PDICs from TIRAP−/− mice; format: cell-based, mouse; conditions: LPS stimulated cultures
Text: Noting that prior studies have shown that B cells are activated by engagement of TLR by damage-associated molecular patterns (DAMPs) released by necrotic cells (17), and noting that TLR signaling was present in CD19+CD11b− lymphocytes sorted from DT injured animals but absent in the same cells sorted from DT injured animals treated with Pirfenidone, we focused our in vitro studies on CD19+ cells using lipolysaccharide (a classic TLR4 agonist and a T-independent antigen), as well as necrotic cardiac cell extracts, which we and others have shown signal through TLR4 (18). […] To further explore the role of TLR mediated signaling, we repeated these experiments in PDICs obtained from thioglycolate-stimulated TIRAP−/− mice. […] Importantly, both mechanisms were sensitive to treatment with Pirfenidone (FIG. 10E and FIG. 10F).
Peritoneal derived inflammatory cells (PDICs) were harvested from the peritoneal cavity of thioglycolate-stimulated wild-type and TIRAP−/− deficient mice. PDIC cultures contain an admixture of inflammatory cells, including CD19+ B cells (40). TIRAP deficient mice were a gift from Dr. Ruslan Medzhitov (Yale University, New Haven, CT). PDICs were harvested on day 4 after i.p. injection of 1 ml of thioglycolate medium (Millipore, Billerica, MA, USA). […]

[3] = tested on: Peritoneal derived inflammatory cells; assay: In vitro immunomodulatory effect of tested PEG compounds (CD86 on CD19+ cells, LPS); format: cell-based, mouse; conditions: LPS 100 ng/ml, 24 h, various concentrations
Protocol: Peritoneal derived inflammatory cells were collected on day for post intraperitoneal injection of Thyoglicollate. Cells were cultured for 24 h in baseline condition (control), in the presence of LPS 100 ng/ml (LPS) or in the presence of LPS 100 ng/ml and various concentrations of different forms of Pegylated Pirfenidone (named C2 and C3 in FIG. 11A and C4 to C6 in FIG. 11B)). After the 24 h in culture cells were collected and analyzed via flow cytometry to assess the expression of CD86 on CD19+ cells (B lymphocytes). […] FIG. 11C reports the molecular weights of the tested forms of PEGylated Pirfenidone and the molecular weight (MW) ration between the tested compound and Pirfenidone).

Structure (SMILES): Cc1ccc(=O)n(-c2ccccc2)c1 [Pirfenidone, 5 methyl-1-phenyl-2-[H] pyridone]
- AUMC0-t, Mean [1]: 14976 h*h*ng/mL
- Plasma concentrations of Pirfenidone ([1]; 8 h, individual rats 7-9, 40 mg/kg): BLOQ (Below lower limit of quantification (1 ng/mL)) and 23.6 ng/ml and 107 ng/ml
- Tmax ([1]; Sprague-Dawley, plasma, individual rats 7-9): 15 min
- CD19+ CD86high lymphocytes [2]: small but significant (p<0.001) decrease
- expression of CD86 on CD19+ cells [3]: reduced
